According to the supplement of paper PMC10307832:

Tests used:
Assay in all cases: relative viability (nuclei count vs DMSO), 5 days (fraction); higher = more cells survive
Obatoclax + Navitoclax = compound: COC1=CC(c2cc3ccccc3[nH]2)=N/C1=C\c1[nH]c(C)cc1C [Obatoclax] + CC1(C)CCC(c2ccc(Cl)cc2)=C(CN2CCN(c3ccc(C(=O)NS(=O)(=O)c4ccc(N[C@H](CCN5CCOCC5)CSc5ccccc5)c(S(=O)(=O)C(F)(F)F)c4)cc3)CC2)C1 [Navitoclax] (partner 0.5 µM)
Method in brief: (§1)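 For relative viability, nuclei counts in treated wells were divided by those in vehicle wells. Lung cancer cell lines had been pin-tool dosed in 1536-well plates the day after seeding and cultured for 5 days, then fixed and stained in one step (final 0.05% Triton X-100, 1% formaldehyde, 1 ug/ml Hoechst) and imaged at 4×. Doses were one drug alone or a fixed anchor-drug dose plus five library-drug doses (not always all listed) in √10 steps, and values are duplicate-plate medians.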

Obatoclax + Trametinib = compound: COC1=CC(c2cc3ccccc3[nH]2)=N/C1=C\c1[nH]c(C)cc1C [Obatoclax] + CC(=O)Nc1cccc(-n2c(=O)n(C3CC3)c(=O)c3c(Nc4ccc(I)cc4F)n(C)c(=O)c(C)c32)c1 [Trametinib] (partner 0.02 µM)
Method in brief: as §1

Obatoclax + Alpelisib = compound: COC1=CC(c2cc3ccccc3[nH]2)=N/C1=C\c1[nH]c(C)cc1C [Obatoclax] + Cc1nc(NC(=O)N2CCC[C@H]2C(N)=O)sc1-c1ccnc(C(C)(C)C(F)(F)F)c1 [Alpelisib] (partner 2 µM)
Method in brief: as §1

[1] = compound: CC1=CC(=NN1)NC2=CC(=NC(=N2)/C=C/C3=CC=CC=C3)N4CCN(CC4)C + Cc1nc(NC(=O)N2CCC[C@H]2C(N)=O)sc1-c1ccnc(C(C)(C)C(F)(F)F)c1 [Alpelisib] (partner 2 µM)
Method in brief: as §1

Cell Line	relative viability (Obatoclax + Navitoclax; first compound 0.01 µM)	relative viability (Obatoclax + Navitoclax; first compound 0.03162 µM)	relative viability (Obatoclax + Navitoclax; first compound 0.1 µM)	relative viability (Obatoclax + Navitoclax; first compound 0.3162 µM)	relative viability (Obatoclax + Navitoclax; first compound 1 µM)	relative viability (Obatoclax + Trametinib; first compound 0.01 µM)	relative viability (Obatoclax + Trametinib; first compound 0.03162 µM)	relative viability (Obatoclax + Trametinib; first compound 0.1 µM)	relative viability (Obatoclax + Trametinib; first compound 0.3162 µM)	relative viability (Obatoclax + Trametinib; first compound 1 µM)	relative viability (Obatoclax + Alpelisib; first compound 0.01 µM)	relative viability (Obatoclax + Alpelisib; first compound 0.03162 µM)	relative viability (Obatoclax + Alpelisib; first compound 0.1 µM)	relative viability (Obatoclax + Alpelisib; first compound 0.3162 µM)	relative viability (Obatoclax + Alpelisib; first compound 1 µM)	relative viability ([1]; first compound 0.08 µM)	relative viability ([1]; first compound 0.253 µM)	relative viability ([1]; first compound 0.8 µM)	relative viability ([1]; first compound 2.53 µM)	relative viability ([1]; first compound 8 µM)
NCI-H2085	1.14	1.11	1.13	0.704	0.728	0.671	0.598	0.582	0.405	0.377	0.89	0.925	0.98	0.57	0.29	0.874	0.952	1.07	0.741	0.301
NCI-H3122	1.02	1.01	1.04	1.04	1.02	0.251	0.215	0.241	0.205	0.212	0.787	0.812	0.792	0.707	0.751	0.769	0.799	0.902	0.621	0.257
NCI-H1651	1.04	0.991	0.968	0.507	0.224	0.847	0.811	0.846	0.845	0.836	0.884	0.765	1.04	0.611	0.236	0.816	0.919	1.15	0.558	0.146
NCI-H441	0.775	0.535	0.832	0.546	0.259	0.505	0.353	0.427	0.27	0.194	0.662	0.822	0.632	0.419	0.327	0.632	0.578	0.484	0.157	0.121
NCI-H2126	0.837	0.839	0.875	0.887	0.908	0.57	0.493	0.526	0.55	0.546	0.779	0.752	0.743	0.769	0.714	0.776	0.802	0.76	0.674	0.377
RERF-LC-KJ	1.04	0.845	0.729	0.875	0.319	0.888	0.834	0.835	0.869	0.769	0.754	0.811	0.805	0.803	0.775	0.788	0.978	0.828	0.573	0.314
NCI-H1666	0.839	1.31	0.865	0.388	0.277	0.753	0.849	0.949	0.805	0.637	0.93	0.903	0.881	0.255	0.223	0.999	1.07	0.817	0.501	0.183
PC-14	0.968	1.07	0.962	0.847	0.128	0.719	0.665	0.513	0.104	0.0647	0.875	0.92	0.892	0.775	0.632	0.915	0.85	0.322	0.749	0.124
NCI-H1915	0.766	0.638	0.711	0.76	0.785	0.296	0.285	0.328	0.284	0.315	1.05	0.965	0.993	1.08	1.05	1.07	1.07	0.977	0.806	0.324
NCI-H2170	0.618	0.554	0.606	0.609	0.577	0.877	0.942	0.904	0.856	0.861	0.777	0.749	0.825	0.724	0.683	0.765	0.861	0.668	0.494	0.147
HCC-78	0.81	0.807	–	0.575	0.668	0.774	0.717	1.03	0.547	0.898	0.314	0.35	–	0.26	0.321	0.315	0.371	0.295	0.275	0.117
PC-3 [JPC-3]	0.853	0.682	0.801	0.796	0.668	0.643	0.71	0.621	0.667	0.47	0.968	1.01	0.999	0.975	1.1	1.08	1.15	1.04	1	0.78
EKVX	0.86	0.618	0.98	0.924	0.922	0.321	–	0.464	0.307	0.292	0.941	0.9	1.02	0.853	0.891	0.856	1.09	0.941	0.675	0.167
NCI-H460	1.08	1.2	1.12	0.034	0.0115	0.151	0.132	0.232	0.0458	0.0584	0.509	0.481	0.309	0.0452	0.0244	0.388	0.581	0.183	0.0086	0.0052
NCI-H1793	0.337	0.291	0.51	0.422	0.47	0.341	0.458	0.445	0.447	0.42	0.702	0.629	0.885	0.678	0.795	0.679	0.758	0.654	0.398	0.124
NCI-H727	0.416	0.487	0.409	0.451	0.262	0.41	0.393	0.414	0.404	0.391	0.575	0.578	0.405	0.475	0.245	0.586	0.54	0.529	0.377	0.167
